{"source": "patent US11299488B2", "about": "“Five membered-aminoheterocycle and 5,6-or 6,6-membered bicyclic aminoheterocyclic inhibitors of rock for the treatment of heart failure” (BRISTOL-MYERS SQUIBB COMPANY, priority 2017, dated 2022)"}
{"biological_target": "ROCK2 (Homo sapiens (Human), UniProt O75116)", "sequence (O75116 whole entry, species assumed)": "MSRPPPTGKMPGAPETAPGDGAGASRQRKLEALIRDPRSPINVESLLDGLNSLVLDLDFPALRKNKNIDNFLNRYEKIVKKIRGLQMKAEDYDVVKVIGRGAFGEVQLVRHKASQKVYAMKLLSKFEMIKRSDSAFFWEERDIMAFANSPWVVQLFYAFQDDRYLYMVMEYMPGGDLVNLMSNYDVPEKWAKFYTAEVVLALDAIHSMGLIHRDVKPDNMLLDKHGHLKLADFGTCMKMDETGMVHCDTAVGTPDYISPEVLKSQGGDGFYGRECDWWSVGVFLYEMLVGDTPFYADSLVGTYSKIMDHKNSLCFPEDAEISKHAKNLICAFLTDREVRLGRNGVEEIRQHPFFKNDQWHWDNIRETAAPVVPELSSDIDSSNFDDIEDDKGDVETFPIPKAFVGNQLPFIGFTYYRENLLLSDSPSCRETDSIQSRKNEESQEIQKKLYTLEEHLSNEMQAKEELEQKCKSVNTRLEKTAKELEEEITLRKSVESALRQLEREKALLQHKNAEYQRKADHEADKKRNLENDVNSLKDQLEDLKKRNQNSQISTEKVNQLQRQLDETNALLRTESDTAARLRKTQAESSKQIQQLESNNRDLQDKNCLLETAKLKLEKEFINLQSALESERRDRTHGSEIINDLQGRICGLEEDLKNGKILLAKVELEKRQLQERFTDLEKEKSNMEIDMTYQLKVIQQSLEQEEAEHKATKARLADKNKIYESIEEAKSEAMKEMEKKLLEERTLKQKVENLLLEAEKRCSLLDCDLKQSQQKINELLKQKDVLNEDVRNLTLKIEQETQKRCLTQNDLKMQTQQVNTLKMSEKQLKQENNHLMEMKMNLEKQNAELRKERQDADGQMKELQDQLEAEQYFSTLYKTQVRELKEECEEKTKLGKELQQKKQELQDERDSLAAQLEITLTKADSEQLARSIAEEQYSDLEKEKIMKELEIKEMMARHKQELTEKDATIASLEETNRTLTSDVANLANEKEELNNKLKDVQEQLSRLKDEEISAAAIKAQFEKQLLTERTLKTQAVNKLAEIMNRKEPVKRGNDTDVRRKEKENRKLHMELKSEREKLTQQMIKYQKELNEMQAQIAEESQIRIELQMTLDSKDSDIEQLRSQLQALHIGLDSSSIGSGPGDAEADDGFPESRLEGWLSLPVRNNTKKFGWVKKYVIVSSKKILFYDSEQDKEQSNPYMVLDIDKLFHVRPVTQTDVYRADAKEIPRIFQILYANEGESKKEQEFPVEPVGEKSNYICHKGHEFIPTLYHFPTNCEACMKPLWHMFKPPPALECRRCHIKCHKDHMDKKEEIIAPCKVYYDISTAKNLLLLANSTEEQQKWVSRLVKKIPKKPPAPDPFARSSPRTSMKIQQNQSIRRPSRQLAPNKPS", "assay": "ROCK assay (Caliper LABCHIP peptide phosphorylation, 5 μM ATP)", "type": "biochemical", "details": "not given", "experimental": "The effectiveness of compounds of the present invention as ROCK inhibitors can be determined in a 30 μL assay containing 20 mM HEPES, pH 7.5, 20 mM MgCl2, 0.015% Brij-35, 4 mM DTT, 5 μM ATP and 1.5 μM peptide substrate (FITC-AHA-AKRRRLSSLRA-OH) (SEQ ID No. 1). Compounds were dissolved in DMSO so that the final concentration of DMSO was <2%, and the reaction was initiated with Rho kinase variants. After incubation, the reaction was terminated by the addition of EDTA and the phosphorylated and non-phosphorylated peptides separated using a LABCHIP® 3000 Reader (Caliper Life Sciences). […] Compounds were tested in dose-response format, and the inhibition of kinase activity was calculated at each concentration of compound. The inhibition data were fit using a curve-fitting program to determine the IC50; i.e., the concentration of compound required to inhibit 50% of kinase activity. Representative Examples were tested in the ROCK assay described above and found having ROCK inhibitory activity. A range of ROCK inhibitory activity (IC50 values) of ≤50 μM (50000 nM) was observed. Table A below lists the ROCK IC50 values measured for the following examples.", "units": {"IC50": "nM"}}
{"smiles": "[H][C@]1(Oc2ncccc2C(N)=O)C[C@]2(C[C@@H](Nc3nccc(-c4cccc(F)c4)n3)C2)C1", "note": "(stereo partly drawn) [Example 49, 2-(((2S,4s,6S)-6-((4-(3-fluorophenyl)pyrimidin-2-yl)amino)spiro[3.3]heptan-2-yl)oxy) nicotinamide]", "IC50": 149}
{"smiles": "NC(=O)c1cccnc1O[C@H]1C[C@@]2(C[C@H](Nc3nnc(-c4ccc(OC(F)(F)F)cc4)o3)C2)C1", "note": "(stereo partly drawn) [Example 16, 2-(((2S,4s,6S)-6-((5-(4-(trifluoromethoxy)phenyl)-1,3,4-oxadiazol-2-yl)amino)spiro[3.3]heptan-2-yl)oxy)nicotinamide]", "IC50": 96}
{"smiles": "NC(=O)c1cccnc1O[C@H]1C[C@@]2(C[C@H](Nc3nc4ccc(F)cc4s3)C2)C1", "note": "(stereo partly drawn) [Example 2, 2-(((2S,4s,6S)-6-((6-fluorobenzo[d]thiazol-2-yl)amino)spiro[3.3]heptan-2-yl)oxy)nicotinamide]", "IC50": 156}
{"smiles": "COc1ccc2c(N[C@H]3C[C@]4(C3)C[C@H](Oc3ncccc3C(N)=O)C4)nc(OC)cc2c1", "note": "(stereo partly shown) [Example 32]", "IC50": 68}
{"smiles": "[H][C@]1(Oc2ncccc2C(N)=O)C[C@]2(C[C@@H](Nc3nccc(-c4ccc(F)cc4)n3)C2)C1", "note": "(stereo partly drawn) [Example 47, 2-(((2S,4s,6S)-6-((4-(4-fluorophenyl)pyrimidin-2-yl)amino)spiro[3.3]heptan-2-yl)oxy) nicotinamide]", "IC50": 211}
{"smiles": "N#Cc1ccc(-c2cnc(N[C@H]3CC4(C3)C[C@H](Oc3ncccc3C(N)=O)C4)nc2)cc1", "note": "(stereo partly drawn) [Example 34, 2-(((2S,4s,6S)-6-((5-(4-cyanophenyl)pyrimidin-2-yl)amino)spiro[3.3]heptan-2-yl)oxy)nicotinamide]", "IC50": 105}
{"smiles": "[H][C@]1(Oc2ncccc2C(N)=O)C[C@]2(C[C@@H](Nc3nccc(NCC(C)(C)CO)n3)C2)C1", "note": "(stereo partly drawn) [Example 45, 2-(((2S,4s,6S)-6-((4-((3-hydroxy-2,2-dimethyl-propyl)amino)pyrimidin-2-yl)amino)spiro[3.3]heptan-2-yl)oxy) nicotinamide]", "IC50": 678}
{"smiles": "[H][C@]1(Oc2ncccc2C(N)=O)C[C@]2(C[C@@H](Nc3ccnc(N4CCC(F)(F)C4)n3)C2)C1", "note": "(stereo partly drawn) [Example 62, 2-(((2S,4s,6S)-6-((2-(3,3-difluoro-pyrrolidin-1-yl)pyrimidin-4-yl)amino)spiro[3.3]heptan-2-yl)oxy) nicotinamide]", "IC50": 398}
{"smiles": "NC(=O)c1cccnc1O[C@H]1C[C@@]2(C[C@H](Nc3nc4ccc(Cl)cc4s3)C2)C1", "note": "(stereo partly drawn) [Example 3, 2-(((2S,4s,6S)-6-((6-chlorobenzo[d]thiazol-2-yl)amino)spiro[3.3]heptan-2-yl)oxy)nicotinamide]", "IC50": 268}
{"smiles": "[H][C@]1(Oc2ncccc2C(N)=O)C[C@]2(C[C@@H](Nc3nccc(N4CCC(C(F)(F)F)CC4)n3)C2)C1", "note": "(stereo partly drawn) [Example 43, 2-(((2S,4s,6S)-6-((4-(4-(trifluoro-methyl)piperidin-1-yl)pyrimidin-2-yl)amino)spiro[3.3]heptan-2-yl)oxy) nicotinainide]", "IC50": 165}
{"smiles": "COc1ccc2ncnc(N[C@H]3C[C@]4(C3)C[C@H](Oc3ncccc3C(N)=O)C4)c2c1", "note": "(stereo partly shown) [Example 23]", "IC50": 62}
{"smiles": "NC(=O)c1cccnc1OC1CC2(CC(Nc3ncc4cc(Br)ccc4n3)C2)C1", "note": "[Example 35, 2-(((2S,4s,6S)-6-((6-bromo-quinazolin-2-yl)amino)spiro[3.3]heptan-2-yl)oxy) nicotinamide]", "IC50": 192}
{"smiles": "NC(=O)c1cccnc1O[C@H]1C[C@@]2(C[C@H](Nc3ncc4ccccc4n3)C2)C1", "note": "(stereo partly drawn) [Example 28, 2-(((2S,4s, 6S)-6-(quinazolin-2-ylamino)spiro [3.3]heptan-2-yl)oxy) nicotinamide]", "IC50": 258}
{"smiles": "[H][C@]1(Oc2ncccc2C(N)=O)C[C@]2(C[C@@H](Nc3nccc(N4CCCC(F)C4)n3)C2)C1", "note": "(stereo partly drawn) [Example 41, 2-(((2S,4s,6S)-6-((4-(3-fluoro-piperidin-1-yl)pyrimidin-2-yl)amino)spiro [3.3]heptan-2-yl)oxy) nicotinamide]", "IC50": 496}
{"smiles": "COc1ccc(-c2csc(N[C@H]3C[C@]4(C3)C[C@H](Oc3ncccc3C(N)=O)C4)n2)cc1", "note": "(stereo partly drawn) [Example 8, 2-(((2S,4s,6S)-6-((4-(4-methoxyphenyl)thiazol-2-yl)amino)spiro[3.3]heptan-2-yl)oxy)nicotinamide]", "IC50": 115}
{"smiles": "NC(=O)c1cccnc1O[C@H]1C[C@@]2(C[C@H](Nc3nc4c(F)cccc4o3)C2)C1", "note": "(stereo partly drawn) [Example 6, 2-(((2S,4s,6S)-6-((4-fluorobenzo[d]oxazol-2-yl)amino)spiro[3.3]heptan-2-yl)oxy)nicotinamide]", "IC50": 110}
{"smiles": "NC(=O)c1cccnc1O[C@H]1C[C@@]2(C[C@H](Nc3nc(-c4ccc(F)cc4)cs3)C2)C1", "note": "(stereo partly drawn) [Example 12, 2-(((2S,4s,6S)-6-((4-(4-fluorophenyl)thiazol-2-yl)amino)spiro [3.3]heptan-2-yl)oxy)nicotinamide]", "IC50": 846}
{"smiles": "NC(=O)c1cccnc1O[C@H]1C[C@@]2(C[C@H](Nc3cnc4cc(F)ccc4n3)C2)C1", "note": "(stereo partly drawn) [Example 21, 2-(((2S,4s,6S)-6-((6-fluoroquinoxalin-2-yl)amino)spiro[3.3]heptan-2-yl)oxy)nicotinamide]", "IC50": 73}
{"smiles": "NC(=O)c1cccnc1O[C@H]1C[C@@]2(C[C@H](Nc3ncnc4cc(Cl)ccc34)C2)C1", "note": "(stereo partly drawn) [Example 24, 2-(((2S,4s,6S)-6-((7-chloro-quinazolin-4-yl)amino)spiro[3.3]heptan-2-yl)oxy) nicotinamide]", "IC50": 103}
{"smiles": "Cn1cc(-c2cccc3sc(N[C@H]4C[C@]5(C4)C[C@H](Oc4ncccc4C(N)=O)C5)nc23)cn1", "note": "(stereo partly drawn) [Example 15, 2-(((2S,4s,6S)-6-((4-(l-methyl-1H-pyrazol-4-yl)benzo[d]thiazol-2-yl)amino)spiro[3.3]heptan-2-yl)oxy)nicotinamide]", "IC50": 597}
{"smiles": "[H][C@]1(Oc2ncccc2C(N)=O)C[C@]2(C[C@@H](Nc3ccnc(-c4cccc(F)c4)n3)C2)C1", "note": "(stereo partly drawn) [Example 70, 2-(((2S,4s,6S)-6-((2-(3-fluorophenyl)pyrimidin-4-yl)amino)spiro[3.3]heptan-2-yl)oxy) nicotinamide]", "IC50": 2240}
{"smiles": "NC(=O)c1cccnc1O[C@H]1C[C@@]2(C[C@H](Nc3nc(-c4ccccc4F)cs3)C2)C1", "note": "(stereo partly drawn) [Example 11, 2-(((2S,4s,6S)-6-((4-(2-fluorophenyl)thiazol-2-yl)amino)spiro [3.3]heptan-2-yl)oxy)nicotinamide]", "IC50": 1160}
{"smiles": "NC(=O)c1cccnc1O[C@H]1C[C@@]2(C[C@H](Nc3nnc(-c4ccc(F)c(F)c4F)o3)C2)C1", "note": "(stereo partly drawn) [Example 19, 2-(((2S,4s,6S)-6-((5-(2,3,4-trifluorophenyl)-1,3,4-oxadiazol-2-yl)amino)spiro[3.3]heptan-2-yl)oxy)nicotinamide]", "IC50": 287}
{"smiles": "[H][C@]1(Oc2ncccc2C(N)=O)C[C@]2(C[C@@H](Nc3nccc(NC4CCC(F)(F)CC4)n3)C2)C1", "note": "(stereo partly drawn) [Example 44, 2-(((2S,4s,6S)-6-((4-((4,4-difluoro-cyclohexyl)amino)pyrimidin-2-yl)amino)spiro[3.3]heptan-2-yl)oxy) nicotinamide]", "IC50": 489}
{"smiles": "NC(=O)c1cccnc1O[C@H]1C[C@@]2(C[C@H](Nc3nnc(-c4ccc(F)c(F)c4)o3)C2)C1", "note": "(stereo partly drawn) [Example 18, 2-(((2S,4s,6S)-6-((5-(3,4-difluorophenyl)-1,3,4-oxadiazol-2-yl)amino)spiro[3.3]heptan-2-yl)oxy)nicotinainide]", "IC50": 326}
{"smiles": "[H][C@]1(Oc2ncccc2C(N)=O)C[C@]2(C[C@@H](Nc3nccc(-c4ccc(C(=O)N(C)C)cc4)n3)C2)C1", "note": "(stereo partly drawn) [Example 50, 2-(((2S,4s,6S)-6-((4-(4-(dimethyl-carbamoyl)phenyl)pyrimidin-2-yl)amino)spiro[3.3]heptan-2-yl)oxy) nicotinamide]", "IC50": 1100}
{"smiles": "[H][C@]1(Oc2ncccc2C(N)=O)C[C@]2(C[C@@H](Nc3ccnc(N4CCCC(F)(F)C4)n3)C2)C1", "note": "(stereo partly drawn) [Example 60, 2-(((2S,4s,6S)-6-((2-(3,3-difluoropiperidin-1-yl)pyrimidin-4-yl)amino)spiro[3.3]heptan-2-yl)oxy)nicotinamide]", "IC50": 220}
{"tested_on": "spontaneously hypertensive rat, renal hypertensive rat and deoxycortisone acetate salt hypertensive rat models", "assay": "not given", "details": "control rats; cited from earlier work"}
{"smiles": "C[C@@H](N)[C@H]1CC[C@H](C(=O)Nc2ccncc2)CC1", "note": "[Example Y-27632, Y-27632]", "blood pressure in control rats": "only a minor effect on blood pressure"}
{"tested_on": "spontaneously hypertensive rat, renal hypertensive rat and deoxycortisone acetate salt hypertensive rat models", "assay": "not given", "details": "three rat models of hypertension; cited from earlier work"}
{"smiles": "C[C@@H](N)[C@H]1CC[C@H](C(=O)Nc2ccncc2)CC1", "note": "[Example Y-27632, Y-27632]", "blood pressure": "significantly decrease blood pressure"}
{"tested_on": "neointimal formation", "assay": "not given", "details": "rats, similar model to balloon injury; cited from earlier work"}
{"smiles": "C[C@@H](N)[C@H]1CC[C@H](C(=O)Nc2ccncc2)CC1", "note": "[Example Y-27632, Y-27632]", "neointimal formation": "inhibited neointimal formation"}
{"tested_on": "IL-1 beta-induced coronary stenosis", "assay": "not given", "details": "long term treatment; cited from earlier work"}
{"smiles": "O=S(=O)(c1cccc2cnccc12)N1CCCNCC1", "note": "[fasudil]", "coronary constrictive remodeling": "promote a regression of coronary constrictive remodeling", "coronary stenosis": "progressively reduce coronary stenosis"}
{"tested_on": "rat stroke model", "assay": "not given", "details": "in vivo; cited from earlier work"}
{"smiles": "O=S(=O)(c1cccc2cnccc12)N1CCCNCC1", "note": "[fasudil]", "infarct size and neurologic deficit": "reduce both the infarct size and neurologic deficit"}
{"tested_on": "congestive heart failure in Dahl salt-sensitive rats", "assay": "not given", "details": "rat, in vivo; cited from earlier work"}
{"smiles": "C[C@@H](N)[C@H]1CC[C@H](C(=O)Nc2ccncc2)CC1", "note": "[Example Y-27632, Y-27632]", "ventricular hypertrophy, fibrosis and function": "improve ventricular hypertrophy, fibrosis and function"}
